The text below walks through data of patent US6437138B1, “3-pyridyloxymethyl heterocyclic ether compounds useful in controlling chemical synaptic transmission” (priority 1996, dated 2002).

By melting point is commonly meant the temperature of the solid-liquid transition.

Where a name gives a salt, the structure may show the parent alone.

Turning to `Cl.Cl.Clc1ncc(OC[C@@H]2CCN2)cc1-c1cncnc1` [Example 172, 3-(2-(S)-Azetidinylmethoxy)-6-chloro-5-(5-pyrimidinyl)pyridine Dihydrochloride], the melting point is 144 °C (dec.).

Compound `C=Cc1ccc(OC[C@@H]2CCN2)cn1.Cl.Cl` [Example 201, 3-(2-(S)-Azetidinylmethoxy)-6-ethenylpyridine Dihydrochloride] yielded a melting point of 102 to 104 °C.

For `Cl.Cl.c1ccc(COc2cncc(OC[C@@H]3CCN3)c2)cc1` [Example 199, 3-(2-(S)-Azetidinylmethoxy)-5-benzyloxypyridine Dihydrochloride], the melting point fell in the range of 172 to 174 °C.

For the compound `COC(=O)C=Cc1cncc(OC[C@@H]2CCCN2C)c1` (as salt: hydrochloride) [Example 16, 5-(2-(Methoxycarbonyl)ethenyl-3-(1-methyl-2-(S)-pyrrolidinylmethoxy)pyridine Dihydrochloride], the melting point lay within 128 to 130 °C.

Regarding `Nc1cccc(-c2cncc(OC[C@@H]3CCN3)c2)c1` (as salt: salt) [Example 65, 5-(3-Aminophenyl)-3-(2-(S)-azetidinylmethoxy)pyridine Hidrochloride], the melting point was 85 to 87 °C.

`CN1CC[C@H]1COc1cnc(Cl)c(-c2cncnc2)c1.Cl` [Example 170, 6-Chloro-3-(1-methyl-2-(S)-azetidinylmethoxy)-5-(5-pyrimidinyl)pyridine Hydrochloride] registered a melting point of 143 to 144 °C.

Regarding `CCCCCCC#Cc1cc(OC[C@H]2CCCN2C)cnc1Cl.Cl.Cl` [Example 80, 5-(1-Octynyl)-6-chloro-3-(1-methyl-2-(R)-pyrrolidinylmethoxy)pyridine Dihydrochloride], the melting point was 114 to 116 °C (dec.).

With `C#Cc1cc(OC[C@@H]2CCCN2)cnc1Cl` (as salt: hydrochloride) [Example 194, 6-Chloro-5-(ethynyl-3-(2-(S)-pyrrolidinylmethoxy)pyridine Hydrochloride], the melting point was 214 to 216 °C.

In the case of `CCCCCCC#Cc1cncc(OC[C@@H]2CCN2)c1` (as salt: hydrochloride) [Example 63, 5-Octynyl-3-(2-(S)-azetidinylmethoxy)pyridine Dihydrochloride], the melting point was in the range of 88 to 90 °C.

Turning to `CC(C)(C)C=CC=Cc1cncc(OC[C@@H]2CCN2)c1` (as salt: hydrochloride) [Example 163, 3-(2-(S)-Azetidinylmethoxy)-5-(5,5-dimethyl-1,3-hexadiene)pyridine Dihydrochloride], the melting point lay within 142 to 144 °C.

`CN1CCC[C@H]1COc1cnc(Cl)c(C=CC=CC(C)(C)C)c1.Cl.Cl` [Example 149, 6-Chloro-5-(5,5-dimethyl-1,3-hexadienyl)-3-(1-methyl-2-(S)-pyrrolidinylmethoxy)pyridine Dihydrochloride]: the melting point came out at 220 °C.

In the case of `Cl.Nc1cccc(-c2cncc(OC[C@@H]3CCCN3)c2)c1` [Example 158, 5-(3-Aminophenyl)-3-(2-(S)-pyrrolidinylmethoxy)pyridine Hydrochlorid], the melting point fell in the range of 68 to 70 °C.

For the compound `C#Cc1cc(OC[C@@H]2CCN2)cnc1Cl.Cl` [Example 175, 3-(2-(S)-Azetidinylmethoxy)-6-chloro-5-ethynylpyridine Hydrochloride], the melting point is 90 °C (dec.).

The compound `Clc1ncc(OC[C@H]2CCCN2)cc1-c1ccccc1` (as salt: salt) [Example 70] registered a melting point of 178 to 180 °C.

Take `COCCOc1cncc(OC[C@@H]2CCCN2C)c1` (as salt: hydrochloride) [Example 198, 5-Methoxyethoxy-3-(1-methyl-(2S)-pyrrolidinylmethoxy)pyridine Dihydrochloride]: the melting point fell in the range of 196 to 197 °C.

`CN1CCC[C@@H]1COc1cnc(Cl)c(-c2ccc(Cl)cc2)c1` (as salt: hydrochloride) [Example 76, 5-(4-Clhorophenyl)-6-chloro-3-(1-methyl-2-(R)-pyrrolidinylmethoxy)pyridine Hydrochloride] gave a melting point of 176 to 178 °C.

Take `CN1CC[C@H]1COc1cnc(Cl)c(-c2ccccc2)c1` (as salt: salt) [Example 68, 5-Phenyl-6-chloro-3-(1-methyl-2-(S)-azetidinylmethoxy)pyridine Hidrochloride]: the melting point fell in the range of 187 to 188 °C.

The compound `CCCCCCC#Cc1cncc(OC[C@H]2CCCN2C)c1.Cl.Cl` [Example 145, 3-(1-Methyl-2-(R)-pyrrolidinylmethoxy)-5-(1-octynyl)pyridine Dihydrochloride] displayed a melting point of 102 to 105 °C.

Compound `CN1CCC[C@H]1COc1cnc(Cl)c(-c2cccnc2)c1.Cl.Cl` [Example 147, 6-Chloro-3-(1-methyl-2-(S)-pyrrolidinylmethoxy)-5-(3-pyridyl)pyridine Dihydrochloride] came in with a melting point of 108 to 110 °C.

Regarding `CN1CCC[C@H]1COc1cncc(-c2cc(C(F)(F)F)cc(C(F)(F)F)c2)c1` (as salt: hydrochloride) [Example 37, 5-(3,5-bis(Trifluoromehyl)phenyl)-3-(1-methyl-2-(S)-pyrrolidinylmethoxy)pyridine Dihydrochloride], the melting point was 68 to 70 °C.

With `C=Cc1cncc(OC[C@@H]2CCCN2C)c1.Cl.Cl` [Example 8, 5-Ethenyl-3-(1-methyl-2-(S)-pyrrolidinylmethoxy)pyridine Dihydrochloride], the melting point lay within 152 to 156 °C.

Consider `Clc1ncc(OC[C@@H]2CCCN2)cc1-c1cccs1` (as salt: hydrochloride) [Example 152, 6-Chloro-3-(2-(S)-pyrrolidinolmethoxy)-5-(2-thienyl)pyridine Dihydrochloride], for which the melting point fell in the range of 208 to 210 °C.

Compound `Cl.Cl.Clc1ccc(-c2cc(OC[C@@H]3CCCN3)cnc2Cl)cc1` [Example 150, 6-Chloro-5-(4-chlorophenyl)-3-(2-(S)-pyrrolidinylmethoxy)pyridine Dihydrochloride] displayed a melting point of 86 to 89 °C.

Turning to `C=Cc1cc(OC[C@H]2CCCN2C)cnc1Cl.Cl` [Example 168, 6-Chloro-5-ethenyl-3-(1-methyl-2-(R)-pyrrolidinylmethoxy)pyridine Hydrochloride], the melting point was in the range of 173 to 175 °C.

`CN1CC[C@H]1COc1cnc(Cl)c(-c2ccc(Cl)cc2)c1` (as salt: citrate) [Example 143, 6-Chloro-5-(4-chlorophenyl)-3-(1-methyl-2-(S)-azetidialmethoxy)pyridine Citrate] returned a melting point of 78 to 79 °C.

In turn, `CN1CCC[C@H]1COc1cncc(C=Cc2ccncc2)c1` (as salt: hydrochloride) [Example 13, 5-(2-(4-Pyridinyl)ethenylyl)-3-((1-methyl-2-(S)-pyrrolidinylmethoxy)pyridine Triihydrochloride] registered a melting point of 187 to 190 °C.

On to `CN1CCC[C@@H]1COc1cnc(Cl)c(CCc2ccncc2)c1.Cl.Cl.Cl` [Example 83, 5-(2-(4-Pyridinyl)ethyl)-6-chloro-3-(1-methyl-2-(R)-pyrrolidinylmethoxy)pyridine Trihydrochloride], for which the melting point was in the range of 236 to 238 °C.

`CN1CCC[C@H]1COc1cnc(Cl)c(-c2cccs2)c1.Cl.Cl` [Example 153, 6-Chloro-3-(1-methyl-2-(S)-pyrrolidinylmethoxy)-5-(2-thienyl)pyridine Dihydrochloride] came in with a melting point of 160 to 163 °C.

In the case of `C=Cc1ncc(OC[C@@H]2CCCN2)cc1C.Cl` [Example 187, 6-Ethenyl-5-methyl-3-(2-(S)-pyrrolidinylmethoxy)pyridine Hydrochloride], the melting point was 168 to 170 °C.

The compound `CCCCCCC#Cc1cc(OC[C@@H]2CCCN2)cnc1Cl.Cl.Cl` [Example 140, 6-Chloro-5-(1-octynyl)-3-(2-(S)-pyrrolidinylmethoxy)pyridine Dihydrochloride] came in with a melting point of 133 to 135 °C.

`Cl.Cl.Cl.c1ncc(-c2cncc(OC[C@@H]3CCCN3)c2)cn1` [Example 174, 5-(5-Pyrimidinyl)-3-(2-(S)-pyrrolidinylmethoxy)pyridine Trihydrochloride] displayed a melting point of 110 to 112 °C.

Regarding `Cl.Clc1ncc(OC[C@H]2CCCN2)cc1-c1cncnc1` [Example 173, 6-Chloro-5-(5-pyrimidinyl)-3-(2-(R)-pyrrolidinylmethoxy)pyridine Hydrochloride], the melting point was 210 °C (dec.).

For the compound `CC(C)(C)C=CC=Cc1cncc(OC[C@H]2CCCN2)c1.Cl.Cl` [Example 138, 5-(5,5-Dimethyl-1,3-hexadienyl)-3-(2-(R)-pyrrolidinylmethoxy)pyridine Dihydrochloride], the melting point lay in the range of 145 to 147 °C.

For `C=CCc1cc(OC[C@@H]2CCN2C)cnc1Cl.Cl` [Example 179, 5-Allyl-3-(1-methyl-2-(S)-azetidinylmethoxy)-6-chloropyridine Hydrochloride], the melting point lay in the range of 109 to 111 °C.

Compound `CC(C)(C)C=CC=Cc1cc(OC[C@@H]2CCCN2)cnc1Cl` (as salt: hydrochloride) [Example 148, 6-Chloro-5-(5,5dimethyl-1,3-hexadienyl)-3-(2-(S)-pyrrilidinylmethoxy)pyridine Dihydrochloride] yielded a melting point of 206 to 208 °C.

`C=CCc1cc(OC[C@@H]2CCCN2C)cnc1Cl.Cl` [Example 184, 5-Allyl-6-chloro-3-(1-methyl-2-(S)-pyrrolidinylmethoxy)pyridine Hydrochloride] gave a melting point of 150 to 152 °C.

Compound `CN1CCC[C@H]1COc1cnc(Cl)c(-c2cncnc2)c1.Cl` [Example 182, 6-Chloro-3-(1-methyl-2-(S)-pyrrolidinylmethoxy)-5-(5-pyrimidinyl)pyridine Hydrochloride] registered a melting point of 200 to 202 °C.

Consider `C=Cc1ccc(OC[C@@H]2CCN2C)cn1.Cl.Cl` [Example 202, 6-Ethenyl-3-(1-methyl-2-(S)-azetidinylmethoxy)pyridine Dihydrochloride], for which the melting point lay within 105 to 107 °C.

`C=CCc1cc(OC[C@H]2CCCN2)cnc1Cl.Cl` [Example 185, 5-Allyl-6-chloro-3-(2-(R)-pyrrolidinylmethoxy)pyridine Hydrochloride]: the melting point lay within 90 to 92 °C.
